Test results: PMC6986272 (Frontiers in Microbiology, 2020)

Columns and labels:
[1] = target: T1, Brucella melitensis DAPDC (diaminopimelate decarboxylase) (Brucella melitensis, UniProt Q8YJJ9); assay: biochemical; details: read-out: Inhibitory rate (%)
T1 construct: gene lysA

[2] = target: T1, Brucella melitensis DAPDC (diaminopimelate decarboxylase); details: 200 mM Tris-HCl pH 8.0, 4 mM α-ketoglutarate, 600 μM NADH, 0.1 mM PLP, excess SDH, DAP 0-20 mM, room temperature
[3] = target: T1, Brucella melitensis DAPDC (diaminopimelate decarboxylase); details: 40 µM
[4] = target: T2, Saccharomyces cerevisiae saccharopine dehydrogenase (SDH) (Saccharomyces cerevisiae, UniProt P38998); assay: NADH oxidation, A340 endpoint; format: biochemical; details: 200 mM Tris pH 8.0, 600 μM NADH, α-ketoglutarate, room temperature, 15 min
T2 construct: gene LYS1; SDH coding gene in pET30a, Ni-NTA purified, expressed in E. coli BL21(DE3), about 41 kDa
T2 sequence (P38998 2-373): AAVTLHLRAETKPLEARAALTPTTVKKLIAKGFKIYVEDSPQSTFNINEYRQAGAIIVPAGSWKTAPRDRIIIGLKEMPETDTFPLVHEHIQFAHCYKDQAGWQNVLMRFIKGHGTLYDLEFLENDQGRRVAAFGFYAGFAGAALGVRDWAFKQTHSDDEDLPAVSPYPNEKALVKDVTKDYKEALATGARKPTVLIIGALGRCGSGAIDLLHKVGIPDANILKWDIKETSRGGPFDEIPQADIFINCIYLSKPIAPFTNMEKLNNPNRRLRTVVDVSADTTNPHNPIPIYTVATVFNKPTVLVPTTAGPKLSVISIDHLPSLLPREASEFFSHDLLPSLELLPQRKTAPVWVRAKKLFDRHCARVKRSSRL

T1 sequence (Q8YJJ9 1-421): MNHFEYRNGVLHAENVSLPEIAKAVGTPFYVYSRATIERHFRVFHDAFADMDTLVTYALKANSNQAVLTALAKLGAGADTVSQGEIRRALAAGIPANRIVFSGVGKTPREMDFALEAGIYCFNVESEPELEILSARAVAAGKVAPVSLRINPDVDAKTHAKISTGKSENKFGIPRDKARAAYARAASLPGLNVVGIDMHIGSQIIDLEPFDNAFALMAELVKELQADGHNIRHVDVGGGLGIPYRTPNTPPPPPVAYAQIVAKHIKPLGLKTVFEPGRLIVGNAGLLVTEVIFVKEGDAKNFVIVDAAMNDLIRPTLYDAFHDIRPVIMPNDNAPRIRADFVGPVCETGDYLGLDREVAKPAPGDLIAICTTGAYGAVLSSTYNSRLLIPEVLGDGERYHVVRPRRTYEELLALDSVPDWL

Row | Compound | inhibition at 40 µM [1] [%] | further results
1 | Cc1c(Cl)cccc1Nc1ccccc1C(=O)O [SID20, tolfenamic acid] | 44 | –
2 | CCN(CCO)CCCC(C)Nc1ccnc2cc(Cl)ccc12 (racemic) [SID6, S4430] | 56.1 | –
3 | CC(C)Nc1cc(-c2c[nH]c(C(=O)N[C@H](CO)c3cccc(Cl)c3)c2)c(Cl)cn1 [SID14, ulixertinib] | 47.3 | –
4 | Cc1nc(Nc2ncc(C(=O)Nc3c(C)cccc3Cl)s2)cc(N2CCN(CCO)CC2)n1 [SID3, dasatinib monohydrate] | 67.1 | –
5 | CC(NC(C)(C)C)C(=O)c1cccc(Cl)c1 (racemic) [SID13, S2452] | 47.7 | –
6 | C[C@H]1COc2c(N3CCN(C)CC3)c(F)cc3c(=O)c(C(=O)O)cn1c23 [SID7, levofloxacin] | 55.3 | –
7 | Cc1cccn2c(=O)c(-c3nn[nH]n3)cnc12 [SID5, S4008] | 63.1 | –
8 | Nc1nc(=S)c2[nH]cnc2[nH]1 [SID2, S1774] | 68.7 | –
9 | NC(CCCC(N)C(=O)O)C(=O)O (stereo not drawn) [DAP] | – | DAPDC-SDH coupled assay, NADH A340 endpoint [2]: hyperbolic behavior of DAPDC activity as a function of DAP concentration
10 | O.O.O=C([O-])CCNC(=O)c1ccc(N=Nc2ccc([O-])c(C(=O)O)c2)cc1.[Na+].[Na+] [SID8, S3745] | – | Inhibitory rate (%) [3]: 54.83%
11 | CO[C@H]1/C=C/O[C@@]2(C)Oc3c(C)c(O)c4c(O)c(c(/C=N/N5CCN(C)CC5)c(O)c4c3C2=O)NC(=O)/C(C)=C\C=C\[C@H](C)[C@H](O)[C@@H](C)[C@@H](O)[C@@H](C)[C@H](OC(C)=O)[C@@H]1C [SID11, rifampin] | 51.5 | –
12 | CC(=O)c1c(C)c2cnc(Nc3ccc(N4CCNCC4)cn3)nc2n(C2CCCC2)c1=O [SID10, S1579] | 52.1 | –
13 | NCCCC[C@H](N)C(=O)O [L-lysine] | – | NADH oxidation, A340 endpoint [4]: Activity of SDH as a function of the concentration of L-lysine
14 | CC1COc2c(N3CCN(C)CC3)c(F)cc3c(=O)c(C(=O)O)cn1c23 (stereo not drawn) [SID16, S1940] | 46.7 | –
15 | COc1cc(C2Oc3ccc(C4Oc5cc(O)cc(O)c5C(=O)C4O)cc3OC2CO)ccc1O (stereo not drawn) [SID1, S2357] | 70.3 | –
16 | CC(C)(C)C(=O)Oc1ccc(S(=O)(=O)Nc2ccccc2C(=O)NCC(=O)[O-])cc1.O.O.O.O.[Na+] [SID9, S4666] | – | Inhibitory rate (%) [3]: 52.88%
17 | CCC(=O)c1c(O)cc(O)cc1O [SID12, S4249] | 49.2 | –
18 | COc1ccc(-c2nc3ccc(C4=NNC(=O)CC4C)cc3[nH]2)cc1 (stereo not drawn) [SID15, pimobendan] | 46.8 | –
